Data reported in patent US9655942B2, “Medical formulation for treating hypercholesterolemia” (priority 2012, dated 2017).

Columns and labels:
[1] = test system: patients suffering from increased low density lipoprotein (LDL) levels; experiment: Example 2: blood level effects (cholesterol, HDL, LDL, non-HDL, risk factor, triglycerides) after three months; assay type: in vivo, human; details: for HDL / LDL / Non-HDL cholesterol / Total cholesterol / Triglycerides: group value; for Risk factor: total cholesterol blood level divided by HDL blood level
Protocol: Especially, the present invention relates to the present medical formulations for recuperation of vascular walls, lowering low density lipoprotein blood levels, lowering the viscosity of blood, lowering blood pressure, and/or increasing high density lipoprotein levels. Preferably, the present invention relates to the present medical formulation for reducing the risk factor in humans, or patients, at risk of hypercholesterolemia, wherein the risk factor is determined by the total cholesterol blood level divided by the HDL blood level.
(§1) As control, group 1 of 5 patients suffering from increased low density lipoprotein (LDL) levels were treated for three months with a formulation comprising, as daily dose 11.40 mg extract of lovastatin.
(§2) A group 2 of 14 patients suffering from increased low density lipoprotein (LDL) levels were treated for three months with a formulation comprising, as daily dose: • 4.80 mg bark extract of cinnamomum zeylanicum; • 24.20 mg fibre extract of Pinus pinaster; • 24.00 mg bark extract Saccharum officinarum; • 11.40 mg lovastatin; • 1.2 mg leave extract of Taraxacum officinale; • 16 mg leave extract of Camellia sinensis; • 20 mg nicotinamide; • 14 mg 50% alpha tocopherol; • 60 mg coenzyme Q10; • 37.80 mg fish oil comprising 19.2 wt % eicosapentaenoic acid and 12.9 wt % docosahexanoic acid; • 60.00 mg beta-glucan; and • 1 mg cholecalciferol.
(§3) The above ingredients were divided in two capsules for daily intake. The capsules were composed of gelatin. One capsule was taken during breakfast; the other was taken during dinner.

[2] = test system: patients suffering from increased low density lipoprotein (LDL) levels; experiment: Example 2: blood pressure after three months; assay type: in vivo, human
Protocol: as §1, §2, §3

CC[C@H](C)C(=O)O[C@H]1C[C@@H](C)C=C2C=C[C@H](C)[C@H](CC[C@@H]3C[C@@H](O)CC(=O)O3)[C@H]21 [lovastatin]
HDL Δ ([1]; change T = 0 to T = 3 months): -4.0 mg/dL | LDL Δ ([1]; change T = 0 to T = 3 months): -23.0 mg/dL | Non-HDL cholesterol Δ ([1]; change T = 0 to T = 3 months): -28.0 mg/dL | Risk factor Δ ([1]; change T = 0 to T = 3 months): -0.41 | Total cholesterol Δ ([1]; change T = 0 to T = 3 months): -26.2 mg/dL | Triglycerides Δ ([1]; change T = 0 to T = 3 months): -19 mg/dL | HDL ([1]; T = 0 (before treatment)): 72.0 mg/dL | LDL ([1]; T = 0 (before treatment)): 96.2 mg/dL | Non-HDL cholesterol ([1]; T = 0 (before treatment)): 129.4 mg/dL | Total cholesterol ([1]; T = 0 (before treatment)): 201.4 mg/dL | Triglycerides ([1]; T = 0 (before treatment)): 165.8 mg/dL | HDL ([1]; T = 3 (three months treatment)): 68.0 mg/dL | LDL ([1]; T = 3 (three months treatment)): 73.2 mg/dL | Non-HDL cholesterol ([1]; T = 3 (three months treatment)): 101.4 mg/dL | Total cholesterol ([1]; T = 3 (three months treatment)): 175.2 mg/dL | Triglycerides ([1]; T = 3 (three months treatment)): 146.8 mg/dL | reduction of risk factor ([1]; three months treatment, stated as size of reduction): 0.41 | Risk factor ([1]; T = 0 (before treatment)): 2.91 | Risk factor ([1]; T = 3 (three months treatment)): 2.5 | Diastolic ([2]; T = 0 (before treatment)): 79.2 mmHg | Systolic ([2]; T = 0 (before treatment)): 120.0 mmHg | Diastolic ([2]; T = 3 (three months treatment)): 79.1 mmHg | Systolic ([2]; T = 3 (three months treatment)): 130.0 mmHg | Diastolic Δ ([2]; change T = 0 to T = 3 months): −0.1 mmHg
